Source: ChEMBL document CHEMBL1201862, “PubChem BioAssay data set” (2004)
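Dose response: 5 concentrations. Exposure: 48 h. Format: 96-well plates. Endpoint: linear interpolation; highest concentration if not reached. At the GI50, growth is halved.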 The source made the active and inactive calls. Cut-off read from the data, not from the text of the source: active = GI50 up to about 1.1 µM and inactive = higher.

Experiments:
Assay in all cases: inhibition of tumour cell growth, NCI panel, 48 h
A498 = system: A498
A549 = system: A549
SF-295 = system: SF-295
UO-31 = system: UO-31
PC-3 = system: PC-3
NCI-H23 = system: NCI-H23
RPMI-8226 = system: RPMI-8226
OVCAR-4 = system: OVCAR-4
EKVX = system: EKVX
SK-MEL-28 = system: SK-MEL-28
NCI-H460 = system: NCI-H460
MOLT-4 = system: MOLT-4
HOP-62 = system: HOP-62
HCT-116 = system: HCT-116
OVCAR-8 = system: OVCAR-8
NCI-H522 = system: NCI-H522
SF-539 = system: SF-539
COLO 205 = system: COLO 205
T47D = system: T47D
SR = system: SR
SNB-75 = system: SNB-75
U-251 = system: U-251
MCF7 = system: MCF7
NCI/ADR-RES = system: NCI/ADR-RES
DU-145 = system: DU-145
SW-620 = system: SW-620
MDA-N = system: MDA-N
OVCAR-3 = system: OVCAR-3
NCI-H226 = system: NCI-H226
IGROV-1 = system: IGROV-1
SK-MEL-5 = system: SK-MEL-5
MDA-MB-231 = system: MDA-MB-231
BT-549 = system: BT-549
M14 = system: M14
KM12 = system: KM12
TK-10 = system: TK-10
SN12C = system: SN12C
OVCAR-5 = system: OVCAR-5
UACC-257 = system: UACC-257
HL-60 = system: HL-60
Hs-578T = system: Hs-578T
HCT-15 = system: HCT-15
Malme-3M = system: Malme-3M
SK-OV-3 = system: SK-OV-3
HOP-92 = system: HOP-92
K562 = system: K562
CCRF-CEM = system: CCRF-CEM
SNB-19 = system: SNB-19
HT-29 = system: HT-29
LOX IMVI = system: LOX IMVI
SK-MEL-2 = system: SK-MEL-2
MDA-MB-435 = system: MDA-MB-435
786-0 = system: 786-0
CAKI-1 = system: CAKI-1
RXF 393 = system: RXF 393
ACHN = system: ACHN
UACC-62 = system: UACC-62
SF-268 = system: SF-268

Compound: c1ccc(N/N=N/c2ccc(-c3nc4ccccc4[nH]3)cc2)nc1
- GI50 (A498): > 100 µM (inactive)
- GI50 (A549): 19.2 µM (inactive)
- GI50 (SF-295): 19.2 µM (inactive)
- GI50 (UO-31): 19.4 µM (inactive)
- GI50 (PC-3): 18.1 µM (inactive)
- GI50 (NCI-H23): 31.8 µM (inactive)
- GI50 (RPMI-8226): 2.05 µM (inactive)
- GI50 (OVCAR-4): 17.8 µM (inactive)
- GI50 (EKVX): 17.3 µM (inactive)
- GI50 (SK-MEL-28): 20.7 µM (inactive)
- GI50 (NCI-H460): 15.2 µM (inactive)
- GI50 (MOLT-4): 4.43 µM (inactive)
- GI50 (HOP-62): 16.6 µM (inactive)
- GI50 (HCT-116): 7.11 µM (inactive)
- GI50 (OVCAR-8): 21.7 µM (inactive)
- GI50 (NCI-H522): 16.8 µM (inactive)
- GI50 (SF-539): 17.1 µM (inactive)
- GI50 (COLO 205): 27 µM (inactive)
- GI50 (T47D): 12.7 µM (inactive)
- GI50 (SR): 2.12 µM (inactive)
- GI50 (SNB-75): 21.6 µM (inactive)
- GI50 (U-251): 16.5 µM (inactive)
- GI50 (MCF7): 11.3 µM (inactive)
- GI50 (NCI/ADR-RES): 30.3 µM (inactive)
- GI50 (DU-145): 13.2 µM (inactive)
- GI50 (SW-620): 17.8 µM (inactive)
- GI50 (MDA-N): 16.7 µM (inactive)
- GI50 (OVCAR-3): 15 µM (inactive)
- GI50 (NCI-H226): 26.3 µM (inactive)
- GI50 (IGROV-1): 13.2 µM (inactive)
- GI50 (SK-MEL-5): 27.6 µM (inactive)
- GI50 (MDA-MB-231): 12.6 µM (inactive)
- GI50 (BT-549): 37.5 µM (inactive)
- GI50 (M14): 37.4 µM (inactive)
- GI50 (KM12): 13.6 µM (inactive)
- GI50 (TK-10): 19.6 µM (inactive)
- GI50 (SN12C): 15.3 µM (inactive)
- GI50 (OVCAR-5): 26.3 µM (inactive)
- GI50 (UACC-257): 23.2 µM (inactive)
- GI50 (HL-60): 50.8 µM (inactive)
- GI50 (Hs-578T): 19.8 µM (inactive)
- GI50 (HCT-15): 15.8 µM
- GI50 (Malme-3M): 15.6 µM (inactive)
- GI50 (SK-OV-3): 14.7 µM (inactive)
- GI50 (HOP-92): 17.3 µM (inactive)
- GI50 (K562): 7.31 µM (inactive)
- GI50 (CCRF-CEM): 2.64 µM (inactive)
- GI50 (SNB-19): 20.8 µM (inactive)
- GI50 (HT-29): 21 µM (inactive)
- GI50 (LOX IMVI): 18.5 µM (inactive)
- GI50 (SK-MEL-2): 27 µM (inactive)
- GI50 (MDA-MB-435): 21.6 µM (inactive)
- GI50 (786-0): 14.4 µM (inactive)
- GI50 (CAKI-1): 27.9 µM (inactive)
- GI50 (RXF 393): 16.4 µM (inactive)
- GI50 (ACHN): 16.6 µM (inactive)

Compound: O=[N+]([O-])c1ccc(N2CCC(CCCC3CCN(c4ccc([N+](=O)[O-])cc4[N+](=O)[O-])CC3)CC2)c([N+](=O)[O-])c1
- GI50 (A498): 17 µM (inactive)
- GI50 (A549): 16.4 µM (inactive)
- GI50 (SF-295): 17.4 µM (inactive)
- GI50 (UACC-62): 11.9 µM (inactive)
- GI50 (UO-31): 11.9 µM (inactive)
- GI50 (PC-3): 15.8 µM (inactive)
- GI50 (NCI-H23): 21.2 µM (inactive)
- GI50 (RPMI-8226): 13.4 µM (inactive)
- GI50 (OVCAR-4): 12.9 µM (inactive)
- GI50 (EKVX): 15.8 µM (inactive)
- GI50 (SK-MEL-28): 12.7 µM (inactive)
- GI50 (NCI-H460): 14.3 µM (inactive)
- GI50 (MOLT-4): 23.3 µM (inactive)
- GI50 (HOP-62): 15.5 µM (inactive)
- GI50 (HCT-116): 26.5 µM (inactive)
- GI50 (OVCAR-8): 16.1 µM (inactive)
- GI50 (NCI-H522): 18.2 µM (inactive)
- GI50 (SF-539): 18.4 µM (inactive)
- GI50 (COLO 205): 14.2 µM (inactive)
- GI50 (T47D): 5.64 µM (inactive)
- GI50 (SR): 27 µM (inactive)
- GI50 (SNB-75): 14.7 µM (inactive)
- GI50 (SF-268): 20 µM (inactive)
- GI50 (U-251): 14.8 µM (inactive)
- GI50 (MCF7): 14.2 µM (inactive)
- GI50 (NCI/ADR-RES): 20.7 µM (inactive)
- GI50 (DU-145): 21.7 µM (inactive)
- GI50 (SW-620): 19.9 µM (inactive)
- GI50 (MDA-N): 16.1 µM (inactive)
- GI50 (OVCAR-3): 18 µM (inactive)
- GI50 (NCI-H226): 25.6 µM (inactive)
- GI50 (IGROV-1): 11.1 µM (inactive)
- GI50 (SK-MEL-5): 15.1 µM (inactive)
- GI50 (MDA-MB-231): 18.7 µM (inactive)
- GI50 (BT-549): 24.4 µM (inactive)
- GI50 (M14): 13.2 µM (inactive)
- GI50 (KM12): 16.7 µM (inactive)
- GI50 (TK-10): 16.9 µM (inactive)
- GI50 (SN12C): 32.1 µM (inactive)
- GI50 (OVCAR-5): 16.4 µM (inactive)
- GI50 (UACC-257): 14.6 µM (inactive)
- GI50 (HL-60): 15.4 µM (inactive)
- GI50 (Hs-578T): 34.8 µM (inactive)
- GI50 (HCT-15): 18.3 µM
- GI50 (Malme-3M): 19.1 µM (inactive)
- GI50 (SK-OV-3): 18.5 µM (inactive)
- GI50 (HOP-92): 11 µM (inactive)
- GI50 (K562): 22.3 µM (inactive)
- GI50 (CCRF-CEM): 13.7 µM (inactive)
- GI50 (SNB-19): 16.1 µM (inactive)
- GI50 (HT-29): 8.11 µM (inactive)
- GI50 (LOX IMVI): 14.8 µM (inactive)
- GI50 (SK-MEL-2): 16.9 µM (inactive)
- GI50 (MDA-MB-435): 13.9 µM (inactive)
- GI50 (786-0): 14.5 µM (inactive)
- GI50 (CAKI-1): 19 µM (inactive)
- GI50 (RXF 393): 15.3 µM (inactive)
- GI50 (ACHN): 16.1 µM (inactive)
